The record followed here is patent US9622469B2, “Crosslink breakers for preservation of biological substances” (priority 2013, dated 2017).

Series [1] in a line: Cleavage of PPD by NHC precursors, Method A (alcoholic co-solvent). Format: biochemical. Conditions: co-solvent MeOH. On the procedure: Dicarbonyl cleavage reactions were performed using either the method described in Vasan et al., An agent cleaving glucose-derived protein crosslinks in vitro and in vivo, Nature (1996) Vol. 382, pp. 275-278 (Method A) or a modified method with MeCN as a co-solvent (Method B).
PPD (21 μl, 156 μmol) was added to a murky solution of NHC (2 or 4, 71 μmol) in 50% MeOH/0.5 M pH 7.4 sodium phosphate buffer (3.5 ml/3.5 ml; final conc. 10 mM NHC, 22 mM PPD) and kept stirred at 37° C. Approximately 0.5 ml aliquots were taken at stated times and analyzed by HPLC. Experiments using EtOH or iPrOH as a co-solvent were done in the same manner. Concentrations of benzoic acid and benzoate esters were determined by peak integration against the calibration curves.
Having learned that ALT-711 performed best among NHCs evaluated for PPD cleavage, we sought to test its substrate scope versus its N-benzyl counterpart (4). We therefore measured product distribution and yield while varying the co-solvent used to solubilize dicarbonyl substrates. As summarized in Table 2, we first investigated the performance of alcoholic co-solvents in PPD cleavage reactions. […] Despite this, however, the product distributions differed substantially: ALT-711 (2) predominantly afforded benzoic acid (PhCO2H:PhCO2Me=3.2:1, Entry 2), whereas 4 mostly gave rise to methyl benzoate (PhCO2H:PhCO2Me=1:2.2, Entry 4). Further replacement of the co-solvent with EtOH and i-PrOH in 4-catalyzed reactions led to a decrease in the proportion of ester production, still without altering overall yield (Entries 5 and 6).

The test system of a further series is stored mouse blood. As to the kind of experiment: Glucose in serum of stored mouse blood (glucose oxidase enzymatic assay). The series is classed as cell-based. Conditions: typical storage conditions, up to 14 days. The procedure:
Leuko-reduced mouse blood was stored under typical storage conditions for up to 14 days, in either OCR6043, control compound, or without any treatment. FIG. 2A illustrates an analysis of glucose in the serum from the stored blood was evaluated using a glucose oxidase enzymatic assay. […] FIG. 2B illustrates the AGE precursor levels on RBCs were measured using a dicarbonyl-specific fluorophore that was developed in-house. The time dependent increase in the AGE precursor levels was dampened in the presence of OCR6043. FIG. 2C illustrates mouse blood that was stored for 14 days, was evaluated for its immunogenicity upon transfusion, by testing for IgGs against an alloantigen on the RBCs (HOD=HEL-OVA-Duffy).

The nature of series [2]: Stability studies of NHC precursors under the PPD cleavage reaction conditions. Format: physicochemical. Conditions: exposure to PPD, Method B conditions. An excerpt:
Instead, 7 gave rise predominantly to an oxalamide derivative, which is believed to form via dimerization and oxidation of intermediate carbenes. […] Stability studies afforded additional insights.
In cleavage of PPD with ALT-711 (2), we detected several decomposition products of the catalyst that appear to be adducts between 2 and an acetyl group, the remainder of PPD following the release of benzoic acid. One adduct that has been isolated and characterized explains why the concentration of ALT-711 diminishes after cleaving PPD while the benzyl counterpart (4) behaves as a stable catalyst. Instead of liberating acetaldehyde and re-entering the catalytic cycle, oxidation of alcohol 13 to the corresponding methyl ketone followed by an aldol condensation with the phenyl ketone gives rise to a thiazolopyridinium derivative (see Supplementary Material for details).

The next series concerns mouse RBC. As to the kind of experiment: Storage of leukoreduced mouse blood in CPDA-1 at 4° C.: hemolysis and intact RBC count. The series is classed as cell-based. Conditions: CPDA-1 buffer; for RBC viability / intact RBCs (hemocytometer): 13 days. On the procedure: FIG. 1 illustrates OCR6043-mediated prolonging of the integrity of stored RBCs. Leuko reduced mouse blood was stored under FDA-approved storage conditions (CPDA-1 buffer at 4° C.) for up to 13 days, in either OCR6043, control compound (structurally similar to OCR6043, but nonfunctional as a AGE crosslink breaker), or without any additive.
This solution was stored at 4° C. according to FDA-approved conditions for 13 days. […] The steps to collect HOD blood from mice and the addition of the FDA-approved storage buffer CPDA are described in Hendrickson et al., Transfusion of fresh murine red blood cells reverses adverse effects of older stored red blood cells, Transfusion (2011) Vol. 12, pp. 2695-2702.
We also counted the intact RBCs using a hemocytometer after 13 days of storage as also depicted in FIG. 1.

On to `Cc1sc[n+](CC(=O)c2ccccc2)c1C.[Cl-]` [Compound 2], for which the “Combined % Yield (PhCO2H, PhCO2Me)” value in series [1] is listed as 54%. The “Glucose levels in serum of stored blood” value with stored mouse blood is “more effective preservation of glucose levels”. Also, in series [2], the “Stability of NHC precursor under the reaction conditions” value is on record as “disappear from solution”. Moreover, the “RBC viability / intact RBCs (hemocytometer)” value is given as “higher levels of intact RBCs” in the series on mouse RBC (listed as ALT-711) and “superior cell viability” with mouse RBC (listed as OCR6043). Also, in the series on mouse RBC (up to 13 days, 12 mM), the “Hemolysis of stored blood (supernatant appearance)” value is reported as “unhemolyzed”.
